From patent US11207301B2, “Sphingosine 1 phosphate receptor agonists for neuroprotection” (RECEPTOS LLC, priority 2017, dated 2021)
pIC50: −log10 of the molar value.

Tests used:
Recombinant human MAO-B = biological target: T1, Recombinant human MAO-B (Homo sapiens, UniProt P27338); assay: MAO-B inhibition, conversion of kynuramine to 4-hydroxyquinoline; format: biochemical
T1 construct: purchased Sigma-Aldrich M7441; host or cells: baculovirus infected insect cells
T1 sequence (P27338 1-520): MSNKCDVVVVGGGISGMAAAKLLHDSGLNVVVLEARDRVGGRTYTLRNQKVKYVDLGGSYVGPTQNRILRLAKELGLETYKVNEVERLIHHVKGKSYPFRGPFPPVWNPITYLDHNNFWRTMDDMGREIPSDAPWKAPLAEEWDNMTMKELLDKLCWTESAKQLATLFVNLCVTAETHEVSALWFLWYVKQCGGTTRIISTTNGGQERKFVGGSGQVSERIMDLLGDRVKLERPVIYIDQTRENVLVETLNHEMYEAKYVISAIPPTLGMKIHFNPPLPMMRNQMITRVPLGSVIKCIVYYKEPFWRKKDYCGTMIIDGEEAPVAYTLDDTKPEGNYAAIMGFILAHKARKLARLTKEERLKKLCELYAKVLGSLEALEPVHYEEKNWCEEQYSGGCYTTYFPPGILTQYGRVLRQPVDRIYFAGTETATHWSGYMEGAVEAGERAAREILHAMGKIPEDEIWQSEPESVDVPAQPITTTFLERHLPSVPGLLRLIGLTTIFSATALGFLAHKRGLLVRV
Protocol: The effect of a S1P receptoragonist on MAO-B activity can be assessed by measuring the inhibition of conversion of substrate kynuramine to 4-hydroxyquinoline as described in Example 4.
Compound 1 and Compound 2-S were evaluated for their ability to inhibit MAO-A and MAO-B. Inhibition of the conversion of kynuramine, a substrate for MAO-A and MAO-B, to 4-hydroxyquinoline was used to assess the inhibitory potential of Compound 1 and Compound 2-S. Recombinant human MAO-A (product number M7316) and MAO-B (product number M7441) expressed in baculovirus infected insect cells were obtained from Sigma-Aldrich, Saint Louis, Mo. USA were used as a source of purified MAOs.
Recombinant MAO-A (0.01 mg/mL, final concentrations) and MAO-B (0.02 mg/mL, final concentration) were diluted to desired concentrations in 100 mM potassium phosphate buffer (pH 7.4) containing 5 mM MgCl2. The diluted protein fractions were preincubated with various concentrations of each test compound at 37° C. for 2 min. The concentrations used were 100, 33, 10, 3.3, 1.0, 0.33 μM and acetonitrile/DMSO as vehicle control for MAO-A and 1.0, 0.3, 0.1, 0.03, 0.01, 0.003 μM and acetonitrile/DMSO as vehicle control for MAO-B. The reaction was started by addition of kynuramine to the incubation mixture. The final concentration of kynuramine was 40 μM for MAO-A and 25 μM for MAO-B. The total incubation volume was 0.250 mL. This concentration was selected to be close to the Km values of MAO-A (Km 42 μM) and MAO-B (Km 26 μM). After 10 min of incubation, aliquots (100 μL) of the reaction mixture were taken and added to 200 μL acetonitrile containing 0.5 μM IS (acetaminophen). The reaction product, 4-hydroxyquinoline was analyzed by LC-MS/MS as described below.
MS characterization and detection of kynuramine and 4-hydroxyquinoline was performed using ABI 4000 Sciex QTrap mass spectrometer utilizing a Turbo Spray. The mass spectrometer was controlled by Analyst v1.6.2. The ESI was operated in a positive ion mode and the experimental parameters were set as follows: ion spray voltage, 2000; source temperature, 550° C.; curtain gas, 20; collision gas, medium ion source gas 1, 55; ion source gas 2, 50. […]
The gradient system was used to separate the analytes with a flow rate of 0.5 ml/min using mobile phase A, water containing 0.1% formic acid and mobile phase B, acetonitrile containing 0.1% formic acid. […] The analytes were monitored using multiple reaction monitoring and the ion transitions (Q1/Q3) were as follows: 4-hydroxyquinoline 146/104 (collision energy, CE was 27; declustering potential, DP, 50, and IS (acetaminophen), 152/110 (collision energy, CE was 27; declustering potential, DP, 50). All data were analyzed using AB Sciex Analyst v1.6.2 software.

[1] = tested on: relapsing multiple sclerosis (RMS) patients; assay: Brain volume loss in phase 3 RMS studies SUNBEAM and RADIANCE Part B vs interferon beta-1a; format: in vivo, human
From the text: As mentioned above, ozanimod is in clinical development for treatment of relapsing multiple sclerosis (RMS). Brain volume loss (BVL) correlates with and predicts disability and is thought to be a marker of long-term disease progression and cognitive impairment. Accordingly, reducing BVL is an important treatment goal. In this example, BVL results are reported from two similarly-designed phase 3 RMS studies.
SUNBEAM (N=1346) and RADIANCE Part B (N=1320) were randomised, double-blind, double-dummy, active-controlled, parallel-group studies of the efficacy (primary outcome annualised relapse rate) and safety of once-daily ozanimod 1 mg or 0.5 mg vs intramuscular interferon beta-1a (IFNβ-1a) 30 μg for ≥12 months (m) (SUNBEAM) or 24 m (RADIANCE). BVL was evaluated using the Jacobian integration method to assess changes in normalised whole brain, cortical grey matter, and thalamic volumes. Rank analysis of covariance was performed with treatment effects reported as percent reductions in median percent BVL from baseline.

[2] = RADIANCE (24 m), 1 mg once daily, p<0.0001
[3] = SUNBEAM (12 m), 1 mg once daily, p<0.0001

Compound | MAO-B inhibition (in words) (Recombinant human MAO-B) | pIC50 (Recombinant human MAO-B; kynuramine 25 μM, 10 min incubation) | slowing of cortical grey matter loss with respect to IFN ([1]; RADIANCE (24 m), 0.5 mg once daily, p<0.0001) [%] | slowing of whole BVL vs IFN ([1]; RADIANCE (24 m), 0.5 mg once daily, p=0.0001) [%] | slowing of thalamic BVL vs IFN ([1]; RADIANCE (24 m), 0.5 mg once daily, p=0.0008) [%] | slowing of cortical grey matter loss with respect to IFN [1, 2] [%] | slowing of thalamic BVL vs IFN [1, 2] [%] | slowing of whole BVL vs IFN [1, 2] [%] | slowing of cortical grey matter loss with respect to IFN ([1]; SUNBEAM (12 m), 0.5 mg once daily, p<0.0001) [%] | slowing of thalamic BVL vs IFN ([1]; SUNBEAM (12 m), 0.5 mg once daily, p=0.0001) [%] | slowing of whole BVL vs IFN ([1]; SUNBEAM (12 m), 0.5 mg once daily, p=0.0615) [%] | slowing of cortical grey matter loss with respect to IFN [1, 3] [%] | slowing of thalamic BVL vs IFN [1, 3] [%] | slowing of whole BVL vs IFN [1, 3] [%]
CC(C)Oc1ccc(-c2nc(-c3cccc4c3CCC4=O)no2)cc1C#N [Compound 1, 2-isopropoxy-5-(3-(1-oxo-2,3-dihydro-1H-inden-4-yl)-1,2,4-oxadiazol-5-yl)benzonitrile] | potent inhibition | 8.18 | – | – | – | – | – | – | – | – | – | – | – | –
CC(C)Oc1ccc(-c2nc(-c3cccc4c3CC[C@@H]4NCCO)no2)cc1C#N [Ozanimod] | – | – | 55.1 | 24.5 | 30.1 | 58.3 | 31.9 | 26.6 | 61.4 | 34.3 | 12.3 | 83.8 | 38.5 | 32.5
